pKd: −log10 of the molar value. Read-outs that look alike come from different tables or passages of the source.

For this assay, the target named is T1, ASGP receptor (biotinylated ASGPR) (Homo sapiens, UniProt P07306).
T1 construct: biotin (biotinylated)
T1 sequence (P07306 1-291): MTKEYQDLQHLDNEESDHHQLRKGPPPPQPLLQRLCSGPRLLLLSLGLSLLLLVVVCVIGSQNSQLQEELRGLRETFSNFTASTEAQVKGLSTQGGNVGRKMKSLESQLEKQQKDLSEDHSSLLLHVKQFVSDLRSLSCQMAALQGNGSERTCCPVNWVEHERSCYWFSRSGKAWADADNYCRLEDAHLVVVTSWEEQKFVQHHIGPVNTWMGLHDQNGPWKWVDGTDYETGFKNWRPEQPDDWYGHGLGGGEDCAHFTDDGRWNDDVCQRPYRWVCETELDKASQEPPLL
Type of assay: binding. The following applies: SPR, Biacore 8K, 25° C., read-out: ASGPR KD.

Take `O=C(O)c1ccc(N2CCN(C[C@H]3OC[C@H](Oc4cccc(C(F)(F)F)n4)[C@@H](O)[C@H]3O)CC2)nn1` [A276]: the negative-log Kd (pKd) (Table 1C) was over 5.00.

For the compound `O=C1c2ccccc2CN1C[C@H]1OC[C@H](Nc2cccc(C(F)(F)F)n2)[C@@H](O)[C@H]1O` [A277], the pKd (Table 1C) is over 5.00.

On to `O[C@@H]1[C@H](O)[C@@H](Nc2cccc(C(F)(F)F)n2)CO[C@@H]1CN1CCC1` [A279], for which the pKd (Table 1C) was over 5.00.

On to `CC(C)(C)OC(=O)N1CCC(Cc2ccc(OC[C@H]3OC[C@H](Oc4cccc(C(F)(F)F)n4)[C@@H](O)[C@H]3O)nn2)CC1` [A280], for which the pKd (Table 1C) is over 5.00.

As to `O=C(O)c1ccc(OC[C@@]23CO[C@@H](O2)[C@H](Nc2cncc(C(F)(F)F)n2)[C@@H](O)[C@H]3O)nn1` [A281], where the note is “Table 1C”, the pKd was over 5.00.

For the compound `O[C@@H]1[C@H](O)[C@@H](Oc2cccc(C(F)(F)F)n2)CO[C@@H]1CN1CCN(c2ccncn2)CC1` [A284], the pKd (Table 1C) was over 5.00.

For `O=C1CCCN1C[C@H]1OC[C@H](Nc2cccc(C(F)(F)F)n2)[C@@H](O)[C@H]1O` [A285], the pKd (Table 1C) is over 5.00.

Consider `C[C@H]1O[C@H](C#CCO)[C@H](Oc2cccc(C(F)(F)F)n2)[C@@H](O)[C@H]1O` [A286], for which, for the setting “Table 1C”, the pKd is over 5.00.

Consider `O[C@@H]1[C@H](O)[C@@H](Oc2cccc(C(F)(F)F)n2)CO[C@@H]1COc1ccccn1` [A287], for which the pKd (Table 1C) was over 5.00.

Regarding `O[C@@H]1[C@H](O)[C@@H](Oc2cccc(C(F)(F)F)n2)CO[C@@H]1COc1ccnnc1` [A288], for the setting “Table 1C”, the pKd was over 5.00.

As to `O[C@@H]1[C@H](O)[C@@H](Oc2cccc(C(F)(F)F)n2)CO[C@@H]1COc1cncnc1` [A289], under “Table 1C”, the pKd was over 5.00.

Take `O=C1c2occc2CN1C[C@H]1OC[C@H](Oc2cccc(C(F)(F)F)n2)[C@@H](O)[C@H]1O` [A290]: the pKd (Table 1C) is over 5.00.

With `O=C1c2sccc2CN1C[C@H]1OC[C@H](Oc2cccc(C(F)(F)F)n2)[C@@H](O)[C@H]1O` [A291], the negative-log Kd (pKd) (Table 1C) is over 5.00.

Take `O[C@@H]1[C@H](O)[C@@H](Oc2cccc(C(F)(F)F)n2)CO[C@@H]1COc1ccncc1` [A292]: for the setting “Table 1C”, the pKd is over 5.00.

`O[C@@H]1[C@H](O)[C@@H](Oc2cccc(C(F)(F)F)n2)CO[C@@H]1CN1CCN(c2cncnc2)CC1` [A293]: the negative-log Kd (pKd) (Table 1C) was over 5.00.

Turning to `CC(C)(C)OC(=O)N1CCC(Cc2ccc(OC[C@H]3OC[C@H](Oc4cccc(C(F)(F)F)n4)[C@@H](O)[C@H]3O)nn2)C1` (stereo partly shown) [A294], the negative logarithm of the Kd (pKd) (Table 1C) is over 5.00.

Take `O[C@@H]1[C@@H](Nc2cccc(C(F)(F)F)n2)[C@H]2OC[C@](COc3cccnn3)(O2)[C@@H]1O` [A295]: the negative logarithm of the Kd (pKd) (Table 1C) is over 5.00.

Turning to `O[C@@H]1[C@@H](Nc2cccc(C(F)(F)F)n2)[C@H]2OC[C@](COc3cnccn3)(O2)[C@@H]1O` [A296], under “Table 1C”, the negative logarithm of the Kd (pKd) is over 5.00.

Regarding `O=C(O)COCCOCC(=O)NC[C@H]1OC[C@H](Oc2cccc(C(F)(F)F)n2)[C@@H](O)[C@H]1O` [A298], the pKd (Table 1C) was over 5.00.

As to `O=C(c1ccc(Cl)cc1)[C@H]1OC[C@H](Oc2cccc(C(F)(F)F)n2)[C@@H](O)[C@H]1O` [A299], the negative-log Kd (pKd) (Table 1C) was over 5.00.

Regarding `O[C@@H]1[C@H](O)[C@@H](Oc2cccc(C(F)(F)F)n2)CO[C@@H]1COc1cccnc1` [A301], the negative-log Kd (pKd) (Table 1C) was over 5.00.

Turning to `CN1CC2CN(C[C@H]3OC[C@H](Oc4cccc(C(F)(F)F)n4)[C@@H](O)[C@H]3O)CCN2C1=O` (stereo partly shown) [A302], the pKd (Table 1C) was over 5.00.

With `C[C@H]1O[C@@H](c2ccc(N3CCNCC3)cc2)[C@H](Oc2cccc(C(F)(F)F)n2)[C@@H](O)[C@H]1O` [A303], the pKd (Table 1C) is over 5.00.

Consider `O[C@@H]1[C@H](O)[C@@H](Oc2cccc(C(F)(F)F)n2)CO[C@@H]1CSc1ccccc1` [A304], for which the negative logarithm of the Kd (pKd) (Table 1C) was over 5.00.

For the compound `O=C(O)COCCOCC(=O)NC[C@@]12CO[C@@H](O1)[C@H](Nc1cncc(C(F)(F)F)n1)[C@@H](O)[C@H]2O` [A305], the pKd (Table 1C) is over 5.00.

Regarding `O[C@@H]1[C@@H](Oc2cccc(C(F)(F)F)n2)COC(C(F)(F)c2ccc(Cl)cc2)[C@@H]1O` (stereo partly shown) [A306], for the setting “Table 1C”, the negative logarithm of the Kd (pKd) was over 5.00.

Consider `O[C@@H]1[C@H](O)[C@@H](Oc2cccc(C(F)(F)F)n2)CO[C@@H]1CSc1ccccn1` [A307], for which the negative-log Kd (pKd) (Table 1C) is over 5.00.

For the compound `O[C@@H]1[C@@H](Oc2cccc(C(F)(F)F)n2)COC(C(F)c2ccc(Cl)cc2)[C@@H]1O` (stereo partly shown) [A308], the negative-log Kd (pKd) (Table 1C) was over 5.00.

On to `O=C(O)c1cnc(OC[C@H]2OC[C@H](Nc3cccc(C(F)(F)F)n3)[C@@H](O)[C@H]2O)cn1` [A309], for which the negative-log Kd (pKd) (Table 1C) was over 5.00.

Take `O=S(=O)(C[C@H]1OC[C@H](Oc2cccc(C(F)(F)F)n2)[C@@H](O)[C@H]1O)c1ccccc1` [A310]: the pKd (Table 1C) was over 5.00.

As to `[O-][S+](C[C@H]1OC[C@H](Oc2cccc(C(F)(F)F)n2)[C@@H](O)[C@H]1O)c1ccccc1` (stereo partly shown) [A311], the pKd (Table 1C) is over 5.00.

For `[O-][n+]1c(O[C@H]2CO[C@H](CSc3ccccc3)[C@H](O)[C@@H]2O)cccc1C(F)(F)F` [A312], where the note is “Table 1C”, the negative-log Kd (pKd) was over 5.00.

Turning to `CC[C@]1(COc2ccc(C(=O)O)nn2)O[C@H](O)[C@H](NC(=O)C(F)(F)F)[C@@H](O)[C@H]1O` [A313], the negative logarithm of the Kd (pKd) (Table 1C) is over 5.00.

Take `CC[C@]1(COc2ccc(C(=O)O)nn2)O[C@H](O)[C@H](Nc2cccc(C(F)(F)F)n2)[C@@H](O)[C@H]1O` [A314]: the negative-log Kd (pKd) (Table 1C) is over 5.00.

For the compound `COC(=O)c1ccc(OC[C@H]2O[C@H](C)[C@H](O)[C@H](O)[C@H]2Oc2cccc(C(F)(F)F)n2)nn1` [A315], the negative logarithm of the Kd (pKd) (Table 1C) is over 5.00.

For `CC[C@H]1O[C@H](C)[C@H](O)[C@H](O)[C@H]1Oc1cccc(C(F)(F)F)n1` [A316], the pKd (Table 1C) is over 5.00.

With `O=C(O)c1ccc(OC[C@H]2OC[C@H](Nc3cccc(C(F)(F)F)n3)[C@@H](O)[C@H]2O)nn1` [A317], the pKd (Table 1C) is over 5.00.

Take `C[C@H]1O[C@H](CCCO)[C@H](Oc2cccc(C(F)(F)F)n2)[C@@H](O)[C@H]1O` [A318]: the pKd (Table 1C) was over 5.00.

`C[C@H]1O[C@H](C#CCOc2cccnn2)[C@H](Oc2cccc(C(F)(F)F)n2)[C@@H](O)[C@H]1O` [A319]: under “Table 1C”, the pKd was over 5.00.

On to `COC(=O)c1ccc(C#C[C@H]2O[C@H](C)[C@H](O)[C@H](O)[C@H]2Oc2cccc(C(F)(F)F)n2)nn1` [A321], for which the negative logarithm of the Kd (pKd) (Table 1C) is over 5.00.

As to `C[C@H]1O[C@H](C#CCOc2ccc(C(=O)O)nn2)[C@H](Oc2cccc(C(F)(F)F)n2)[C@@H](O)[C@H]1O` [A322], the pKd (Table 1C) is over 5.00.

With `Nc1ccc(OC[C@H]2OC[C@H](Oc3cccc(C(F)(F)F)n3)[C@@H](O)[C@H]2O)nn1` [A323], the pKd (Table 1C) is over 5.00.

As for `O=C(O)c1ccc(OC[C@H]2OC[C@H](Nc3nccc(C(F)(F)F)n3)[C@@H](O)[C@H]2O)nn1` [A325], the pKd (Table 1C) was over 5.00.

Turning to `NCCOCCOCC(=O)NC[C@H]1OC[C@H](Oc2cccc(C(F)(F)F)n2)[C@@H](O)[C@H]1O` [A326], for the setting “Table 1C”, the negative-log Kd (pKd) is over 5.00.

In the case of `OC[C@H]1O[C@H](c2ccccc2)[C@H](Oc2cccc(C(F)(F)F)n2)[C@@H](O)[C@H]1O` [A329], the negative-log Kd (pKd) (Table 1C) was over 5.00.

Regarding `O[C@@H]1[C@H](O)[C@@H](Oc2cccc(C(F)(F)F)n2)[C@@H](c2ccccc2)O[C@@H]1C(F)F` [A330], where the note is “Table 1C”, the pKd was over 5.00.

With `C[C@H]1O[C@H](C#Cc2ccc(C(=O)O)nn2)[C@H](Oc2cccc(C(F)(F)F)n2)[C@@H](O)[C@H]1O` [A331], the pKd (Table 1C) was over 5.00.

In the case of `C[C@H]1O[C@H](c2cc[nH]n2)[C@H](Oc2cccc(C(F)(F)F)n2)[C@@H](O)[C@H]1O` [A332], under “Table 1C”, the negative logarithm of the Kd (pKd) was over 5.00.

With `COC(=O)/C=C/[C@H]1O[C@H](C)[C@H](O)[C@H](O)[C@H]1Oc1cccc(C(F)(F)F)n1` [A333], the negative logarithm of the Kd (pKd) (Table 1C) was over 5.00.

Turning to `CC(=O)[C@H]1O[C@H](C)[C@H](O)[C@H](O)[C@H]1Oc1cccc(C(F)(F)F)n1` [A334], the negative-log Kd (pKd) (Table 1C) is over 5.00.

With `C[C@H]1O[C@@H](c2ncnc3c2ncn3Cc2ccccc2)[C@H](Oc2cccc(C(F)(F)F)n2)[C@@H](O)[C@H]1O` [A335], for the setting “Table 1C”, the pKd is over 5.00.

For `C[C@H]1O[C@@H](c2ccccn2)[C@H](Oc2cccc(C(F)(F)F)n2)[C@@H](O)[C@H]1O` [A336], the pKd (Table 1C) was over 5.00.

Turning to `C[C@H]1O[C@@H](c2ncncc2F)[C@H](Oc2cccc(C(F)(F)F)n2)[C@@H](O)[C@H]1O` [A337], the pKd (Table 1C) was over 5.00.

For `C[C@H]1O[C@H](c2ncncc2F)[C@H](Oc2cccc(C(F)(F)F)n2)[C@@H](O)[C@H]1O` [A338], the pKd (Table 1C) is over 5.00.

`CC(O)[C@H]1O[C@H](C)[C@H](O)[C@H](O)[C@H]1Oc1cccc(C(F)(F)F)n1` (stereo partly shown) [A339]: the pKd (Table 1C) was over 5.00.

`C[C@H]1O[C@H](c2ccc3c(c2)CCC3)[C@H](Oc2cccc(C(F)(F)F)n2)[C@@H](O)[C@H]1O` [A340]: the negative-log Kd (pKd) (Table 1C) is over 5.00.

With `C[C@H]1O[C@H](c2ccc3c(c2)CNC3)[C@H](Oc2cccc(C(F)(F)F)n2)[C@@H](O)[C@H]1O` [A341], the negative-log Kd (pKd) (Table 1C) is over 5.00.

In the case of `C[C@H]1O[C@H](c2cccc3ccccc23)[C@H](Oc2cccc(C(F)(F)F)n2)[C@@H](O)[C@H]1O` [A342], the pKd (Table 1C) is over 5.00.

Turning to `C[C@H]1O[C@H](c2ccc3ccccc3n2)[C@H](Oc2cccc(C(F)(F)F)n2)[C@@H](O)[C@H]1O` [A343], the negative-log Kd (pKd) (Table 1C) is over 5.00.

In the case of `C[C@H]1O[C@@H](c2ccc3ccccc3n2)[C@H](Oc2cccc(C(F)(F)F)n2)[C@@H](O)[C@H]1O` [A344], where the note is “Table 1C”, the negative logarithm of the Kd (pKd) is over 5.00.

On to `O[C@@H]1[C@@H](Oc2cccc(C(F)(F)F)n2)CSC[C@@H]1O` [A345], for which the negative logarithm of the Kd (pKd) (Table 1C) was over 5.00.

Take `C[C@H]1O[C@H](c2cc(-c3ccccc3)no2)[C@H](Oc2cccc(C(F)(F)F)n2)[C@@H](O)[C@H]1O` [A346]: for the setting “Table 1D”, the negative logarithm of the Kd (pKd) was over 5.00.

In the case of `Cc1nnc(N2C[C@H](Oc3cccc(C(F)(F)F)n3)[C@@H](O)[C@@H](O)C2)s1` [A351], the negative-log Kd (pKd) (Table 1D) is over 5.00.

Turning to `Cc1nnc(N2C[C@H](Oc3cccc(C(F)(F)F)n3)[C@@H](O)[C@@H](O)C2)o1` [A352], the pKd (Table 1D) is over 5.00.

For the origin of these results see patent publication US20260083851A1 (AVILAR THERAPEUTICS, INC., priority 2022, published 2026).
